As usually defined, the IC50 is the concentration at which inhibition is half-maximal.

The target of the test is T1, human chemokine receptor 2 isoform B (Homo sapiens, UniProt P41597).
T1 construct: host or cells: CHOK1-CCR2B-A5 (CHO-K1)
T1 sequence (P41597 1-360 isoform P41597-2): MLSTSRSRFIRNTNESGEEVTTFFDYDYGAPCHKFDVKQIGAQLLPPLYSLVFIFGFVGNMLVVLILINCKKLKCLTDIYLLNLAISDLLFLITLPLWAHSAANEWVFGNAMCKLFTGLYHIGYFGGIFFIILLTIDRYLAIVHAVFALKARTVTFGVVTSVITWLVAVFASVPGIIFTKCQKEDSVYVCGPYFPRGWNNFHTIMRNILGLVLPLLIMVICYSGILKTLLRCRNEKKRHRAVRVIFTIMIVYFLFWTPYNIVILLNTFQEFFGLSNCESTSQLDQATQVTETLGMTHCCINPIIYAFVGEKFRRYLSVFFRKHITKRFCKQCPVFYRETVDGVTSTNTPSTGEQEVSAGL
The test is described as follows: Calcium mobilization assay (FLIPR, CHOK1-CCR2B-A5 cells, 20 nM MCP-1). The format is cell-based. Conditions: Ca mobilisation assay, CCR2, antagonist activity vs 20 nM MCP-1. The method in brief:
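FLIPR Fluo-4 calcium readout in CHO-K1 cells stably overexpressing human CCR2B; compounds first monitored 80 s for agonist activity, then after 20-30 min at 30 °C challenged with 20 nM MCP-1. Response is max minus basal fluorescence; antagonist value is concentration giving 50% inhibition of specific calcium increase.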

`COCC1CCC(O)CN1CCCCN1CCN(C(=O)/C=C/c2ccc(Cl)c(F)c2)CCC1=O` (racemic) [Example 418]: the IC50 was found to be 1.47 µM.

As to `C[C@@]1(CO)CCN(CCCCN2CCN(C(=O)/C=C/c3ccc(Cl)c(Cl)c3)CCC2=O)C[C@H]1O` [Example 474], the IC50 is 0.106 µM.

Take `O=C(/C=C/c1cnc(Cl)c(Cl)c1)N1CCC(=O)N(CCCN2CCC3(CC3)C(O)C2)CC1` (stereo not drawn) [Example 497, 1-[(E)-3-(5,6-Dichloro-pyridin-3-yl)-acryloyl]-4-[3-((-)-4-hydroxy-6-aza-spiro[2.5]oct-6-yl)-propyl]-[1,4]diazepan-5-one]: the IC50 worked out at 0.026 µM.

On to `CC1C(O)CCCN1CCCN1CCN(C(=O)C=Cc2ccc(F)c(Cl)c2)CCC1=O` (mixture of isomers) [Example 209, (rac,cis)-1-[(E)-3-(3-Chloro-4-fluoro-phenyl)-acryloyl]-4-[3-(3-hydroxy-2-methyl-piperidin-1-yl)-propyl]-[1,4]diazepan-5-one], for which the IC50 was 1.39 µM.

In the case of `CC(C)CN1CCN(CCCN2CCN(C(=O)/C=C/c3ccc(Cl)c(Cl)c3)CCC2=O)CC1` [Example 258], the 50% inhibitory concentration (IC50) was 0.375 µM.

For `COCC1CCN(CCCCN2CCN(C(=O)/C=C/c3ccc(F)c(Cl)c3)CCC2=O)CC1` [Example 404], the IC50 was found to be 0.095 µM.

Consider `C[C@@H]1CN(CCCN2CCN(C(=O)/C=C/c3ccc(Cl)c(Cl)c3)CCC2=O)CC[C@@H]1O` (racemic) [Example 253], for which the IC50 was found to be 0.132 µM.

For the compound `CNC(=O)C1CCN(CCCN2CCN(C(=O)/C=C/c3ccc(Cl)c(Cl)c3)CCC2=O)CC1` [Example 86, 1-(3-{4-[(E)-3-(3,4-Dichloro-phenyl)-acryloyl]-7-oxo-[1,4]diazepan-1-yl}-propyl)-piperidine-4-carboxylic acid methylamide], the IC50 was determined as 1.08 µM.

For the compound `C[C@@H]1C[C@H](O)CN(C[C@H](O)CCN2CCN(C(=O)/C=C/c3ccc(Cl)c(Cl)c3)CCC2=O)C1` [Example 503], the IC50 was 0.051 µM.

For the compound `O=C(/C=C/c1ccc(Cl)c(Cl)c1)N1CCC(=O)N(CC[C@H](O)CN2CCCCC2)CC1` [Example 178, 1-[(E)-3-(3,4-Dichloro-phenyl)-acryloyl]-4-((S)-3-hydroxy-4-piperidin-1-yl-butyl)-[1,4]diazepan-5-one], the IC50 came out at 0.201 µM.

Consider `O=C(/C=C/c1ccc(Cl)c(Cl)c1)N1CCC(=O)N(CC[C@@H](O)CN2CCCCC2)CC1` [Example 172, 1-[(E)-3-(3,4-Dichloro-phenyl)-acryloyl]-4-((R)-3-hydroxy-4-piperidin-1-yl-butyl)-[1,4]diazepan-5-one], for which the IC50 amounted to 0.105 µM.

For the compound `COC(=O)N(C)C1CCN(CCCCN2CCN(C(=O)/C=C/c3ccc(F)c(Cl)c3)CCC2=O)CC1` [Example 402], the IC50 came out at 0.291 µM.

For the compound `O=C(/C=C/c1ccc(Cl)c(Cl)c1)N1CCC(=O)N(CCCN2CC(O)CCC2CO)CC1` (racemic) [Example 273], the IC50 was found to be 0.313 µM.

With `O=C(/C=C/c1ccc(Cl)c(Cl)c1)N1CCC(=O)N(CCCN2CCCC2)CC1` [Example 46, 1-[(E)-3-(3,4-Dichloro-phenyl)-acryloyl]-4-(3-pyrrolidin-1-yl-propyl)-[1,4]diazepan-5-one], the IC50 is 0.333 µM.

In the case of `O=C(/C=C/c1ccc(Cl)c(Cl)c1)N1CCC(=O)N(CCCN2CCC(O)CC2)CC1` [Example 159, 1-[(E)-3-(3,4-Dichloro-phenyl)-acryloyl]-4-[3-(4-hydroxy-piperidin-1-yl)-propyl]-[1,4]diazepan-5-one], the IC50 was found to be 0.258 µM.

Consider `CC1C(O)CCCN1CCCCN1CCN(C(=O)C=Cc2ccc(F)c(Cl)c2)CCC1=O` (stereo not drawn) [Example 388], for which the IC50 was 0.381 µM.

Regarding `CC1(C)CN(CC(O)CN2CCN(C(=O)/C=C/c3ccc(Cl)c(Cl)c3)CCC2=O)CCC1O` (racemic) [Example 324], the IC50 came out at 0.215 µM.

As to `O=C(/C=C/c1ccc(F)c(Cl)c1)N1CCC(=O)N(CCCN2CCC[C@@H](O)C2)CC1` [Example 193], the IC50 came to 0.644 µM.

With `O=C(/C=C/c1ccc(Cl)c(Cl)c1)N1CCC(=O)N(CCCCN2CC[C@@H](O)[C@@H](F)C2)CC1` (racemic) [Example 430, (rac,cis)-1-[(E)-3-(3,4-Dichloro-phenyl)-acryloyl]-4-[4-(3-fluoro-4-hydroxy-piperidin-1-yl)-butyl]-[1,4]diazepan-5-one], the IC50 stood at 0.352 µM.

Take `CN(CCO)CCCCN1CCN(C(=O)/C=C/c2ccc(Cl)c(Cl)c2)CCC1=O` [Example 460]: the IC50 came to 0.832 µM.

Take `O=C(/C=C/c1ccc(Cl)c(Cl)c1)N1CCC(=O)N(CCCN2CCC(CO)CC2)CC1` [Example 229]: the IC50 was 0.154 µM.

For `CC1CCC(N(C)CCCN2CCN(C(=O)/C=C/c3ccc(Cl)c(Cl)c3)CCC2=O)CC1` (mixture of isomers) [Example 54, cis/trans-1-[(E)-3-(3,4-Dichloro-phenyl)-acryloyl]-4-{3-[methyl-(4-methyl-cyclohexyl)-amino]-propyl}-[1,4]diazepan-5-one], the IC50 was determined as 0.747 µM.

As to `COC(=O)NC1CCN(CCCN2CCN(C(=O)/C=C/c3ccc(F)c(Cl)c3)CCC2=O)CC1` [Example 201], the IC50 stood at 0.656 µM.

Take `CC(=O)NC1CCCN(CCCCN2CCN(C(=O)/C=C/c3ccc(Cl)c(Cl)c3)CCC2=O)C1` (racemic) [Example 466]: the IC50 stood at 0.389 µM.

For the compound `O=C(/C=C/c1ccc(Cl)c(Cl)c1)N1CCC(=O)N(CCC(O)CN2CCCCC2)CC1` (racemic) [Example 170, (rac)-1-[(E)-3-(3,4-Dichloro-phenyl)-acryloyl]-4-(3-hydroxy-4-piperidin-1-yl-butyl)-[1,4]diazepan-5-one], the IC50 amounted to 0.448 µM.

In the case of `O=C(/C=C/c1ccc(Cl)c(Cl)c1)N1CCC(=O)N(C[C@@H](O)CN2CC[C@@H](CO)[C@H](O)C2)CC1` (mixture of isomers) [Example 333, 1-[(E)-3-(3,4-Dichloro-phenyl)-acryloyl]-4-[(S)-2-hydroxy-3-(trans-3-hydroxy-4-hydroxymethyl-piperidin-1-yl)-propyl]-[1,4]diazepan-5-one], the IC50 is 0.301 µM.

With `O=C(/C=C/c1ccc(F)c(Cl)c1)N1CCC(=O)N(CCCN2CCCC(CO)C2)CC1` (racemic) [Example 211], the IC50 is 0.363 µM.

Take `O=C1NCC2(CCN(CCCN3CCN(C(=O)/C=C/c4ccc(F)c(Cl)c4)CCC3=O)CC2)O1` [Example 195]: the IC50 was 0.453 µM.

In the case of `O=C(/C=C/c1ccc(Cl)c(Cl)c1)N1CCC(=O)N(CCCN2CCC(O)C2)CC1` (racemic) [Example 71, (+/−)-1-[(E)-3-(3,4-Dichloro-phenyl)-acryloyl]-4-[3-(3-hydroxy-pyrrolidin-1-yl)-propyl]-[1,4]diazepan-5-one], the IC50 worked out at 0.566 µM.

For the compound `N#CC1(c2ccccc2)CCN(CCCN2CCN(C(=O)/C=C/c3ccc(Cl)c(Cl)c3)CCC2=O)CC1` [Example 60, 1-(-3-{4-[(E)-3-(3,4-Dichloro-phenyl)-acryloyl]-7-oxo-[1,4]diazepan-1-yl}-propyl)-4-phenyl-piperidine-4-carbonitrile], the IC50 is 0.023 µM.

With `COCC1(C)CCCN(CCCCN2CCN(C(=O)/C=C/c3ccc(Cl)c(Cl)c3)CCC2=O)C1` (racemic) [Example 446], the IC50 turned out to be 0.626 µM.

In the case of `CCN(CC)C1CCN(CCN2CCN(C(=O)/C=C/c3ccc(Cl)c(Cl)c3)CCC2=O)C1` (racemic) [Example 347], the IC50 is 0.864 µM.

Turning to `CC1(CO)CCN(CC(O)CN2CCN(C(=O)/C=C/c3ccc(Cl)c(Cl)c3)CCC2=O)CC1` (racemic) [Example 319], the IC50 stood at 0.265 µM.

Take `O=C(/C=C/c1ccc(Cl)c(Cl)c1)N1CCC(=O)N(CCCN2CCC3(CC3)C(O)C2)CC1` (stereo not drawn) [Example 261]: the concentration for half-maximal inhibition (IC50) was determined as 0.009 µM.

For the compound `COCCN1CCN(CCCCN2CCN(C(=O)/C=C/c3ccc(Cl)c(Cl)c3)CCC2=O)CC1` [Example 439], the half-inhibitory concentration (IC50) was 0.263 µM.

On to `C[C@@H]1CN(CC(O)CCN2CCN(C(=O)/C=C/c3ccc(Cl)c(Cl)c3)CCC2=O)CC[C@H]1O` (mixture of isomers) [Example 372, (rac)-1-[(E)-3-(3,4-Dichloro-phenyl)-acryloyl]-4-[3-hydroxy-4-(trans-4-hydroxy-3-methyl-piperidin-1-yl)-butyl]-[1,4]diazepan-5-one], for which the IC50 was determined as 1.23 µM.

On to `COC1CCC(CO)N(CCCCN2CCN(C(=O)/C=C/c3ccc(Cl)c(Cl)c3)CCC2=O)C1` (racemic) [Example 477], for which the IC50 came to 0.313 µM.

On to `CC1CN(C(=O)/C=C/c2ccc(Cl)c(Cl)c2)CCN(CCCN2CCCCC2)C1=O` (racemic) [Example 187, (rac)-1-[(E)-3-(3,4-Dichloro-phenyl)-acryloyl]-6-methyl-4-(3-piperidin-1-yl-propyl)-[1,4]diazepan-5-one], for which the IC50 was determined as 0.385 µM.

Take `COC(=O)NC1CCN(CCCN2CCN(C(=O)/C=C/c3ccc(Cl)c(Cl)c3)CCC2=O)CC1` [Example 244]: the concentration for half-maximal inhibition (IC50) is 0.66 µM.

With `O=C1NC(=O)C2(CCN(CCCN3CCN(C(=O)/C=C/c4ccc(F)c(Cl)c4)CCC3=O)CC2)N1` [Example 194], the IC50 turned out to be 0.494 µM.

With `O=C(/C=C/c1ccc(Cl)c(Cl)c1)N1CCC(=O)N(CC(O)CN2CC[C@@H](F)[C@H](O)C2)CC1` (mixture of isomers) [Example 284], the IC50 worked out at 0.717 µM.

As to `CN(CCCN1CCN(C(=O)/C=C/c2ccc(Cl)c(Cl)c2)CCC1=O)C1CCCCC1` [Example 39, 4-[3-(Cyclohexyl-methyl-amino)-propyl]-1-[(E)-3-(3,4-dichloro-phenyl)-acryloyl]-[1,4] diazepan-5-one], the IC50 was determined as 0.538 µM.

For the origin of these results see US7632829B2, “Diazepan derivatives” (Hoffmann-La Roche Inc., priority 2006, dated 2009).
